Measured values taken from ChEMBL document CHEMBL1201862, “PubChem BioAssay data set” (2004).
Activity calls are given as the source filed them.

Experiments:
[1] = molecular target: T1, Endoribonuclease toxin MazF (Escherichia coli K-12, UniProt P0AE70); assay: fluorescent RNA oligo signal without MazF, dose response, counter-screen for MazEF activator project, biochemical, fluorescence, single-stranded RNase substrate (AID 588502); assay type: functional
T1 sequence (P0AE70 whole entry): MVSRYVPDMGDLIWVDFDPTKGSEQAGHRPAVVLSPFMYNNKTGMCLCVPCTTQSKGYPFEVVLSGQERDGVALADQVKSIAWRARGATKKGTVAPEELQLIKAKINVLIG

[2] = molecular target: T1, Endoribonuclease toxin MazF; assay: MazF toxin RNase activators, dose response, biochemical, fluorescence, single-stranded RNA substrate, uHTS hits (AID 588481); assay type: functional
[3] = molecular target: Delta-type opioid receptor (Homo sapiens, UniProt P41143); assay: Counterscreen for agonists of heterodimerization of the mu 1 (OPRM1) and delta 1 (OPRD1) opioid receptors: Luminescence-based cell-based high throughput dose response assay to identify agonists of OPRD1 homodimerization. [Related pubchem assays (depositor defined):AID504326, AID504355, AID504692, AID504904, AID504905]; assay type: functional
Chain of Delta-type opioid receptor (P41143 whole entry): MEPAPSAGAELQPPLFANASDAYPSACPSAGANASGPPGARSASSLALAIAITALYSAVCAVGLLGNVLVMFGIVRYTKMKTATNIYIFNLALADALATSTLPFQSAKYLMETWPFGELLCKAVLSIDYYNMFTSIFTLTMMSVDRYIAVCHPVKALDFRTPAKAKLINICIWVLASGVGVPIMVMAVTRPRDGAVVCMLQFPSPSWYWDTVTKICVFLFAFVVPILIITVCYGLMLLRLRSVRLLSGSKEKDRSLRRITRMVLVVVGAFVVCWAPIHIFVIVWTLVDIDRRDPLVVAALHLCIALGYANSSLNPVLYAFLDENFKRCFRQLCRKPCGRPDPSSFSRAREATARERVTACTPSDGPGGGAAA

Mu-type opioid receptor = Mu-type opioid receptor (Homo sapiens, UniProt P35372); assay: Counterscreen for agonists of heterodimerization of the mu 1 (OPRM1) and delta 1 (OPRD1) opioid receptors: Luminescence-based cell-based high throughput dose response assay to identify agonists of OPRM1 homodimerization.; assay type: functional;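 also: U2OS cells expressing OPRM1 and beta-arrestin as split beta-galactosidase partners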
Chain of Mu-type opioid receptor (P35372 whole entry): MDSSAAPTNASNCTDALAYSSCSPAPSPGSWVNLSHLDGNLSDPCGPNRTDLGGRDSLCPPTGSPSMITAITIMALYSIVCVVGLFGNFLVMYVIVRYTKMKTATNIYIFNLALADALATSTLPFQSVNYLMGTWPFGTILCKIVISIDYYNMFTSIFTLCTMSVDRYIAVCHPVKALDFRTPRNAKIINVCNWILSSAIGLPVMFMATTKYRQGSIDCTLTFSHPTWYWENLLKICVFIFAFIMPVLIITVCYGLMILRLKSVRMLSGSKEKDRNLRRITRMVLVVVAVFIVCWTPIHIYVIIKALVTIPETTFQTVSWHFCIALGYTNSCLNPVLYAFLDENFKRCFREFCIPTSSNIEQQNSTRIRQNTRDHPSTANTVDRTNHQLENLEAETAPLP

[4] = molecular target: 5-hydroxytryptamine receptor 5A (Homo sapiens, UniProt P47898); assay: Counterscreen for agonists of OPRM1-OPRD1 heterodimerization: luminescence-based cell-based high throughput dose response assay to identify agonists of 5-hydroxytryptamine (serotonin) 5A receptor (HTR5A). [Related pubchem assays (depositor defined):AID504326, AID504355, AID504692, AID504904, AID504905]; assay type: functional
Chain of 5-hydroxytryptamine receptor 5A (P47898 whole entry): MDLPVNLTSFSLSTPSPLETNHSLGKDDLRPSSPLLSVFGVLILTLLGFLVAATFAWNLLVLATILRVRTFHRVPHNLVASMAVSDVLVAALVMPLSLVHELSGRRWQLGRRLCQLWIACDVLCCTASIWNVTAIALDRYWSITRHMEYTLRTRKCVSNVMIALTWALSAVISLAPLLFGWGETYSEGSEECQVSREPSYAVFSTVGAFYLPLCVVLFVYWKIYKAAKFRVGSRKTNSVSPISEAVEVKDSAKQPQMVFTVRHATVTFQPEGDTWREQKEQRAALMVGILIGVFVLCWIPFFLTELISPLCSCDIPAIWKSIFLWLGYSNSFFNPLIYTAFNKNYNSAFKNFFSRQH

[5] = molecular target: T2, Short transient receptor potential channel 4 (Mus musculus, UniProt Q9QUQ5); assay: mouse TRPC4 channel activators, dose response, cell-based, HEK293 TRPC4/mu-opioid, Fluo-4 calcium (AID 434937); assay type: functional
T2 sequence (Q9QUQ5 whole entry): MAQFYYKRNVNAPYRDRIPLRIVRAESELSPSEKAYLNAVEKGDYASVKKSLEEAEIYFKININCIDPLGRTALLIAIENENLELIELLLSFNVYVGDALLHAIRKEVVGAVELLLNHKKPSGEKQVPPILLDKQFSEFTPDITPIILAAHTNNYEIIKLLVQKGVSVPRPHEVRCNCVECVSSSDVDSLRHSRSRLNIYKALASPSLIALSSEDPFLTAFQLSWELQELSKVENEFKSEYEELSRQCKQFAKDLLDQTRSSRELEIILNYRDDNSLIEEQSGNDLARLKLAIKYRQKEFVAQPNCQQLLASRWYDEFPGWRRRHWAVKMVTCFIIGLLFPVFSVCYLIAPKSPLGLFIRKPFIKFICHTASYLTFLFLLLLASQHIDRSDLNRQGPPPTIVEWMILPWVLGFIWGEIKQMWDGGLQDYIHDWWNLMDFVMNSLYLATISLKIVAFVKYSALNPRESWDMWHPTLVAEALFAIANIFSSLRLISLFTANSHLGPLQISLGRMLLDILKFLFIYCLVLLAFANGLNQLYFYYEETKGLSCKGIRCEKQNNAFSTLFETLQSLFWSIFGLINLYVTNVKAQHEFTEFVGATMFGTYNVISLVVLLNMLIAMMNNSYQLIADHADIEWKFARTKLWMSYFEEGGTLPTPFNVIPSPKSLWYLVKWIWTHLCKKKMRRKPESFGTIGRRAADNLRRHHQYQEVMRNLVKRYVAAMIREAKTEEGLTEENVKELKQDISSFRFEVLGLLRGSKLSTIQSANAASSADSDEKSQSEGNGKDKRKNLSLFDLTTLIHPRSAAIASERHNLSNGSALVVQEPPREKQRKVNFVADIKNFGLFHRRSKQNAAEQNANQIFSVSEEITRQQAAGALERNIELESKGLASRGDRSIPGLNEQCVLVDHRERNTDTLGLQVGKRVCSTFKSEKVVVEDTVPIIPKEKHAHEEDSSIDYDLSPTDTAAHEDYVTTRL

Cytochrome P450 2C9 = Cytochrome P450 2C9 (Homo sapiens, UniProt P11712)
Chain of Cytochrome P450 2C9 (P11712 whole entry): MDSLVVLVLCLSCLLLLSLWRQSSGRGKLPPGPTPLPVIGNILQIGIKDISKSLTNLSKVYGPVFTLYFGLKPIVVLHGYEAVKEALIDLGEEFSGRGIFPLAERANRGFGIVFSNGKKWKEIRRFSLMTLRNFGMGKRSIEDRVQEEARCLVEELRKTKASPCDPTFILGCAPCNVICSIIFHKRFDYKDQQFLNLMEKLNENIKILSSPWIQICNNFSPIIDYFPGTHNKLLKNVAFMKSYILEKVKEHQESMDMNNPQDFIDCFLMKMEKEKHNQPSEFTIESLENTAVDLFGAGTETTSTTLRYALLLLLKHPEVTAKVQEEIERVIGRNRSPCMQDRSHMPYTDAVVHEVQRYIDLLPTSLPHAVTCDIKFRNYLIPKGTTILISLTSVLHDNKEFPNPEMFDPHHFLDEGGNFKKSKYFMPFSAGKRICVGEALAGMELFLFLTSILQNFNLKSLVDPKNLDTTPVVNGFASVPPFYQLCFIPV

Cytochrome P450 2C19 = Cytochrome P450 2C19 (Homo sapiens, UniProt P33261); assay: Cytochrome panel assay with activity outcomes. Panel member name: p450-cyp2c19 Compounds with AC50 equal or less than 10 uM are considered active; assay type: functional; conditions: read-out: AC50
Chain of Cytochrome P450 2C19 (P33261 whole entry): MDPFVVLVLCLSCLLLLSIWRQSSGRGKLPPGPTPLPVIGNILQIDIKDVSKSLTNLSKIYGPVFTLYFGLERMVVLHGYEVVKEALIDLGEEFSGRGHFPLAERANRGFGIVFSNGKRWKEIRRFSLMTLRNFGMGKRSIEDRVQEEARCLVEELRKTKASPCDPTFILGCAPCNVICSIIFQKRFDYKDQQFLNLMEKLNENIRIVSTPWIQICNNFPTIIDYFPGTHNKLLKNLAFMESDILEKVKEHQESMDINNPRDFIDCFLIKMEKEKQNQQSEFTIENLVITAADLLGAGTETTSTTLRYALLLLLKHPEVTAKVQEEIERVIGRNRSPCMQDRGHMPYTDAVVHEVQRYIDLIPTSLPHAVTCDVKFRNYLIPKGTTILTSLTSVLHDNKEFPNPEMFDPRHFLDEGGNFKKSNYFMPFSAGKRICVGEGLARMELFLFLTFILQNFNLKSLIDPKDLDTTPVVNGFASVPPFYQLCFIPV

Cytochrome P450 2D6 = Cytochrome P450 2D6 (Homo sapiens, UniProt P10635);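 also: CYP2D6 member of a cytochrome P450 panel assay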
Chain of Cytochrome P450 2D6 (P10635 whole entry): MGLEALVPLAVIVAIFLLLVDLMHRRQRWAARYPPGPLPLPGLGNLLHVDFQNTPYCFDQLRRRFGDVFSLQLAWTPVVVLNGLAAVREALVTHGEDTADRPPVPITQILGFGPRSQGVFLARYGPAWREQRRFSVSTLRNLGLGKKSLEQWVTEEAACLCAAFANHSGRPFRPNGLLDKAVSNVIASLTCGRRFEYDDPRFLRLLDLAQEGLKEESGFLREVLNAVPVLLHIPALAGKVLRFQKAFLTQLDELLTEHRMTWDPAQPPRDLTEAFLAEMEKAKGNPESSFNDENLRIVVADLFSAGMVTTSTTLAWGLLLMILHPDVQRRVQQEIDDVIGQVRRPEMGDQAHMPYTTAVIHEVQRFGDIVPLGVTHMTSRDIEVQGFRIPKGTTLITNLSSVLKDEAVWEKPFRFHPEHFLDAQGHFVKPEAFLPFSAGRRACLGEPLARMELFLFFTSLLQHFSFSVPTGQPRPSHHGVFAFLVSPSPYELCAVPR

[6] = HEp-2 cell cytotoxicity, dose response, cytotoxicity control for RSV inhibitor project, HTS (AID 2410); assay type: functional; conditions: human respiratory syncytial virus
DNA topoisomerase = molecular target: T3, DNA topoisomerase (Yersinia pestis, UniProt A0A2S9PM60); assay: Y. pestis Topo-I inhibitors, cleavage product readout, dose response, biochemical, cherry-pick (AID 588525)
T3 sequence (A0A2S9PM60 whole entry): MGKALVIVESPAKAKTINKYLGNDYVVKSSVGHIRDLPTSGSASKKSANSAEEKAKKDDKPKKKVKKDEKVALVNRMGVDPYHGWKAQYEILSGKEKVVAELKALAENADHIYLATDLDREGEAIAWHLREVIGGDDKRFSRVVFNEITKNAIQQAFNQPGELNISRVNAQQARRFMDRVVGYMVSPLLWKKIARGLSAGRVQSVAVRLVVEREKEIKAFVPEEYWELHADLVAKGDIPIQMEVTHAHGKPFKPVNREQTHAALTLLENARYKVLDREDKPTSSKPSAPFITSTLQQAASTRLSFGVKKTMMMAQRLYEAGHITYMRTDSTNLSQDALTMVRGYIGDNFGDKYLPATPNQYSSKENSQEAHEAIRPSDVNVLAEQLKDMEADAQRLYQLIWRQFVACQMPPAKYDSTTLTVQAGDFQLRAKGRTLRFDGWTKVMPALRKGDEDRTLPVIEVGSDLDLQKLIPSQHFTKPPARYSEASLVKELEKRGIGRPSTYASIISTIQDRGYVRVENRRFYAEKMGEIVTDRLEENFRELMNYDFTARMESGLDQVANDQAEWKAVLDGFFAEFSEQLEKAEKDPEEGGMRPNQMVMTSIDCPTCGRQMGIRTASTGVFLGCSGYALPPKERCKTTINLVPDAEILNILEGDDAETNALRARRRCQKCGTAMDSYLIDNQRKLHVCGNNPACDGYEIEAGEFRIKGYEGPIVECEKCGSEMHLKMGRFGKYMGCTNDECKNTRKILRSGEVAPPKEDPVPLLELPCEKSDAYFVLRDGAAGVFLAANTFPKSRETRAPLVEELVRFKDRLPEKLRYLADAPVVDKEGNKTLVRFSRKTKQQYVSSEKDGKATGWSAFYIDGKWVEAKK

[7] = molecular target: T4, Zinc finger protein mex-5 (Caenorhabditis elegans, UniProt Q9XUB2); assay: MEX-5/TCR-2 RNA interaction inhibitors, dose response, biochemical, C. elegans, fluorescence polarization (AID 1960)
T4 sequence (Q9XUB2 whole entry): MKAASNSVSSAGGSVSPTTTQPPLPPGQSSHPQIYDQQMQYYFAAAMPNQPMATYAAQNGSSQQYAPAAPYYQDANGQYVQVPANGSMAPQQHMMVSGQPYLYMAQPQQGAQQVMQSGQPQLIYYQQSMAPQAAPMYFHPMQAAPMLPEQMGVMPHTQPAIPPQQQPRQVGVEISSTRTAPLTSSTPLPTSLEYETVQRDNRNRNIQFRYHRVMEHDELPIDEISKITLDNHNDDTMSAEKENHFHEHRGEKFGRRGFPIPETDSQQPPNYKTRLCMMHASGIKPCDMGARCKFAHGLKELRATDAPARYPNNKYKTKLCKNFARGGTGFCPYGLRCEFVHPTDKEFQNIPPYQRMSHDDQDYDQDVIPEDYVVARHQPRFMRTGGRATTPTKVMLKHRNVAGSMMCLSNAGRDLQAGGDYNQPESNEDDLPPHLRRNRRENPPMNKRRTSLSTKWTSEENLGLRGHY

[8] = molecular target: T5, RNA-binding protein pos-1 (Caenorhabditis elegans, UniProt G5EF15); assay: inhibitors of POS-1/mex-3 RNA binding, dose response, biochemical, fluorescence polarization (AID 1964);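 also: purified POS-1 fused to maltose binding protein made in E. coli; potency of compounds blocking POS-1 binding to fluorescent RNA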
T5 sequence (G5EF15 whole entry): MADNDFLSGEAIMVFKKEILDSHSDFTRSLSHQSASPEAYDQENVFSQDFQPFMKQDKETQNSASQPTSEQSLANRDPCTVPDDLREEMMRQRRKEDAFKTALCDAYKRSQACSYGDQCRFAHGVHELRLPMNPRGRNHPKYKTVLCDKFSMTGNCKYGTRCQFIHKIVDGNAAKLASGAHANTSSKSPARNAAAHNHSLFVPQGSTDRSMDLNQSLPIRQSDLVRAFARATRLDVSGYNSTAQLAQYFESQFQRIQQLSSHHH

Cysteine protease ATG4B = molecular target: T6, Cysteine protease ATG4B (Homo sapiens, UniProt Q9Y4P1); assay type: functional;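 also: Fluorescence-based dose-response confirmation assay measuring inhibition of ATG4B activity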
T6 sequence (Q9Y4P1 whole entry): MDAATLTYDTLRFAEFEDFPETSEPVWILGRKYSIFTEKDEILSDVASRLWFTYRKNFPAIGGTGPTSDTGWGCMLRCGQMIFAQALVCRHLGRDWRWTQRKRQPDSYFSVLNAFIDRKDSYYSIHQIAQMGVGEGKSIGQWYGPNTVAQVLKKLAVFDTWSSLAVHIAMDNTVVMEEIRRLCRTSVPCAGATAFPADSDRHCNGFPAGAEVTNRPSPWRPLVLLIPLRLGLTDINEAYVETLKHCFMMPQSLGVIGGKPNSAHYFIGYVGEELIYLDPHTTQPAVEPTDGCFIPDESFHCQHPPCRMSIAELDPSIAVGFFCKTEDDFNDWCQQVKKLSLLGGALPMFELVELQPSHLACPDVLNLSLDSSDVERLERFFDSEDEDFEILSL

Phospholipase A2 = Phospholipase A2 (Homo sapiens, UniProt P04054); assay type: functional;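 also: confirmatory dose-response counterscreen on phospholipase A2, testing hits that came from an ultra-high-throughput screen for ATG4B inhibitors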
Chain of Phospholipase A2 (P04054 whole entry): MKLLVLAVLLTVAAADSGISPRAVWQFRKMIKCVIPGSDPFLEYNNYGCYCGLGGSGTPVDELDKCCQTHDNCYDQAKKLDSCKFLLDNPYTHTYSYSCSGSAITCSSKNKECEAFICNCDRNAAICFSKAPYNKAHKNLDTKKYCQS

[9] = molecular target: T7, Heat shock factor protein 1 (Mus musculus, UniProt P38532); assay: HSF1 potentiators in luciferase reporter cells, confirmation, cell-based, NIH3T3, luminescence, dose retest (AID 435004); assay type: functional;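 also: stress induced by proteasome inhibitor MG132 added 30 min after compound; luciferase reporter driven by HSF1 response element in NIH3T3 cells; actives raise luminescence as potentiators of the MG132 stress response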
T7 sequence (P38532 whole entry): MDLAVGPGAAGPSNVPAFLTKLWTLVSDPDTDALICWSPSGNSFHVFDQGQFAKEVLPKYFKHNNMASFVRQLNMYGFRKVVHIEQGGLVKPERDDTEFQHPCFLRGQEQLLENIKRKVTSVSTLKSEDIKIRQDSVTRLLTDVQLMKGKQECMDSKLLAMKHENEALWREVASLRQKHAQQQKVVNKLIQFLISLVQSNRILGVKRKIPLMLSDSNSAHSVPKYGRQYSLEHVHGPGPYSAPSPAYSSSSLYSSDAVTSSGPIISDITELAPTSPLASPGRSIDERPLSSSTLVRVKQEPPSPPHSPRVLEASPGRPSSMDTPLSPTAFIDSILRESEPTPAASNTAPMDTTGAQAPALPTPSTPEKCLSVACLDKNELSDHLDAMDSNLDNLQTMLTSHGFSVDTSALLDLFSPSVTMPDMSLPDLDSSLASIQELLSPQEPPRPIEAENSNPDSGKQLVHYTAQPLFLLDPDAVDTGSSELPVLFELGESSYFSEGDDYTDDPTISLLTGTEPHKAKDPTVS

[10] = molecular target: T8, Type-1 angiotensin II receptor (Homo sapiens, UniProt P30556); assay: AT1 receptor antagonists, dose response, selectivity assay for APJ receptor antagonist project, cell-based, uHTS hits (AID 463214); assay type: functional;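 also: antagonist potency against angiotensin II stimulated AT1 response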
T8 sequence (P30556 whole entry): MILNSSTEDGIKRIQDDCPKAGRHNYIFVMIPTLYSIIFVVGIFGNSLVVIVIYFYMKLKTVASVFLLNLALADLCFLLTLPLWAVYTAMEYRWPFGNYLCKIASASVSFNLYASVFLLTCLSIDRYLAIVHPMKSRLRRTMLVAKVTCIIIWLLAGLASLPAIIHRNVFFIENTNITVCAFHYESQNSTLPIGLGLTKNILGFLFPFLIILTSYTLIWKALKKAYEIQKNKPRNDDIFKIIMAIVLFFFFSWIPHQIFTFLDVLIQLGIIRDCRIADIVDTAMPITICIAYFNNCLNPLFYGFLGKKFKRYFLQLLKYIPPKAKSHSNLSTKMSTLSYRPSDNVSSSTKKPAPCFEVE

Beta-galactosidase = Beta-galactosidase (Escherichia coli, UniProt Q8VNN2); assay: PubChem AID 485352; assay type: functional
Chain of Beta-galactosidase (Q8VNN2 whole entry): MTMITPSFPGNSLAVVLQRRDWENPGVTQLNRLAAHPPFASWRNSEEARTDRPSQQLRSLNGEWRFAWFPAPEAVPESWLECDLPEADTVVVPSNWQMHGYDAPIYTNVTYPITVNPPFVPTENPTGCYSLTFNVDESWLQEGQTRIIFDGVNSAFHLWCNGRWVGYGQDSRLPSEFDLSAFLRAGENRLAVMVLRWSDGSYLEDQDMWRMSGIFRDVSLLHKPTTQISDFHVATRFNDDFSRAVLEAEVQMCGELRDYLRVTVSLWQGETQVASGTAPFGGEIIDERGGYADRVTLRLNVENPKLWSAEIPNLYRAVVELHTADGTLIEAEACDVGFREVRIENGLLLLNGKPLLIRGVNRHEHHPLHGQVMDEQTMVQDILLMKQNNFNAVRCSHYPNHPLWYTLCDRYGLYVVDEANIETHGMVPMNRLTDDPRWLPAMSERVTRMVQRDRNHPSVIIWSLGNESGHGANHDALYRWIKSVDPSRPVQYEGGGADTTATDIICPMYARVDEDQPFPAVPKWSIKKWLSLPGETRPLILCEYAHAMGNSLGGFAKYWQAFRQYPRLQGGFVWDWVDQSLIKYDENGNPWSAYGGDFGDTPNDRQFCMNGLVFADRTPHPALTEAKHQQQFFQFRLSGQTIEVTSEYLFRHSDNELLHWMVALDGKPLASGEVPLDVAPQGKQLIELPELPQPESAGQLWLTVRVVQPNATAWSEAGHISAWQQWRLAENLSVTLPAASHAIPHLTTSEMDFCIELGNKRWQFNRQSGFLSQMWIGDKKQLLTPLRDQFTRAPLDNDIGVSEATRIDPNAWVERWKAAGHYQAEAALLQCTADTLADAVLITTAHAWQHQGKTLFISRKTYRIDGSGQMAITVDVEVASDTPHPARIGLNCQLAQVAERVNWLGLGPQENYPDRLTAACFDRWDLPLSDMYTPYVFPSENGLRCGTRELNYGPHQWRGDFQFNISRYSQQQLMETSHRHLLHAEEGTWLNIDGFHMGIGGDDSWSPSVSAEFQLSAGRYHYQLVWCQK

## Cc1ccc(C2=C/C(=C/c3cccs3)C(=O)O2)cc1
[1]
  EC50: 28.2 µM (inactive)
[2]
  EC50: > 99 µM (inactive)

## CN(C)C(CNC(=O)NC1CCCCC1)c1cccnc1 (configuration not stated)
[3]
  EC50: > 92.5 µM (inactive)
Mu-type opioid receptor
  EC50: > 92.5 µM (inactive)
[4]
  EC50: > 92.5 µM (inactive)
[5]
  EC50: 0.06 µM (active)
Cytochrome P450 2C9
  AC50: 0.398 µM (inconclusive)
Cytochrome P450 2C19
  AC50: 25.1 µM (inconclusive)
Cytochrome P450 2D6
  AC50: 31.6 µM (inconclusive)

## N#Cc1ccc(-c2cccnc2)nc1SCC(=O)c1ccccc1
[1]
  EC50: 35.9 µM (inactive)
[2]
  EC50: 23.3 µM (inactive)

## O=C1CN(C(=O)CSc2nc3cc(Cl)ccc3c(=O)n2Cc2ccccc2)c2ccccc2N1
[6]
  CC50: 46.4 µM (active)
DNA topoisomerase
  AC50: 9.89 µM (active)

## COc1ccc(/C=C/c2nc3sc4c(c3c(=O)o2)CCC4)cc1
[1]
  EC50: > 99 µM (inactive)
[2]
  EC50: 46.6 µM (inactive)
[7]
  EC50: 125 µM (inconclusive)
[8]
  EC50: 6.97 µM (inconclusive)

## NC(=O)c1ccc(C(F)(F)F)n(Cc2cccc(Cl)c2)c1=O
Cysteine protease ATG4B
  IC50: 26.3 µM (inactive)
Phospholipase A2
  IC50: 3.93 µM (active)
[9]
  EC50: > 260 µM (inactive)

## O=C(O)c1ccc(C[n+]2c(-c3ccccc3)csc2Nc2ccccc2)cc1
Cysteine protease ATG4B
  IC50: 15.1 µM (active)
Phospholipase A2
  IC50: > 80 µM (inactive)

## Cc1ccc(C(=O)CNc2cccc(Cl)c2)cc1
[10]
  IC50: 9.87 µM (active)
Beta-galactosidase
  EC50: > 40 µM (inactive)
DNA topoisomerase
  AC50: 21.7 µM (active)

## O=C(c1ccc(-n2c(SCc3cc(F)ccc3F)nc3ccccc3c2=O)cc1)N1CCOCC1
Cysteine protease ATG4B
  IC50: 8.7 µM (active)
Phospholipase A2
  IC50: 11.7 µM (active)
